Results reported in paper PMC7859889 (ACS chemical biology, 2020).
Where two headings read alike, the source gives them in different places.

Experiments:
[1] = tested on: type I IFN – MHC class I pathway; experiment: Average / all assays; assay type: cell-based, human; details: for hill slope: concentration-response curves; for IC50: read-out: Average IC50
HLA-ABC = HLA-ABC immunofluorescence; assay type: cell-based, human; details: for Emax: read-out: Immunofluorescence Efficacy
C25cl48 cells = experiment: IF cell count cytotoxicity; assay type: cell-based, human; details: IF cell count cytotoxicity, C25cl48 cells
HLA-B mRNA = experiment: HLA-B RT-qPCR tertiary assay; assay type: cell-based, human; details: for Emax: read-out: RT-qPCR Efficacy; for IC50: read-out: RT-qPCR IC50
ISG15 = experiment: Multi Gene RT-qPCR, ISG15; assay type: cell-based, human; details: compared to IFN-β treated cells; 4.0 ng/ml IFN-β plus 50 uM compound, 24 hrs
MX1 = experiment: Multi Gene RT-qPCR, MX1; assay type: cell-based, human; details: compared to IFN-β treated cells; 4.0 ng/ml IFN-β plus 50 uM compound, 24 hrs
HLA and ISG genes = experiment: Multi Gene RT-qPCR, gene panel; assay type: cell-based, human; details: 4.0 ng/ml IFN-β plus 50 uM compound, 24 hrs; for effect on HLA and ISG gene expression (in words): C25cl48 cells
HLA-B HiBit cells = experiment: CellTiter-Glo; details: cytotoxicity, 4.0 ng/ml IFN-β, 24 hours
STAT1 = experiment: Western blot, STAT1 phosphorylation; assay type: cell-based, human; details: C25cl48 cells, 0.5 hrs, 4.0 ng/ml IFN-β plus IC95 concentration of compound
[2] = tested on: HLA-B HiBit (MHC class I); experiment: HLA-B HiBit luminescent reporter assay; details: for HiBit Efficacy: 4.0 ng/ml IFN-β, IFN-β = 0%, DMSO alone = −100% activity
[3] = HLA-B HiBit clone AB-7 cells, 24 hours
[4] = HLA-ABC+ C25cl48 cells, IFN-β-stimulated, prednisolone acetate used for IF
[5] = HLA-B mRNA, C25cl48 cells, 4.0 ng/mL IFN-β
[6] = average of HiBit, Immunofluorescence, RT-qPCR

| Compound | hill slope [1] | Emax (HLA-ABC; Homo sapiens) [%] | Cell count Curve class (C25cl48 cells) | Emax (HLA-B mRNA; Homo sapiens) [%] | IC50 (HLA-B mRNA; Homo sapiens) [µM] | IC50 ([1]; Homo sapiens) [µM] | effect on HLA and ISG gene expression (in words) (HLA and ISG genes) | CTG Curve class (HLA-B HiBit cells) | phosphorylation of STAT1 (STAT1) | HiBit Efficacy [2, 3] [%] | efficacy in reducing all HLA and ISG genes (HLA and ISG genes) [%] | also measured |
| --- | --- | --- | --- | --- | --- | --- | --- | --- | --- | --- | --- | --- |
| CC(C)[C@]12O[C@H]1[C@@H]1O[C@]13[C@]1(O[C@H]1C[C@H]1C4=C(CC[C@@]13C)C(=O)OC4)[C@@H]2O [triptolide] | ultrasensitive | – | – | – | – | – | – | – | – | – | – | – |
| C[C@]12C=CC(=O)C=C1CC[C@@H]1[C@@H]2[C@@H](O)C[C@@]2(C)[C@H]1CC[C@]2(O)C(=O)CO [Prednisolone] | – | 31 | 4 | 14 | 0.03 | 0.043 | increased ISG15 and MX1 | 4 | – | – | – | increase of ISG15 mRNA (ISG15): ~ 3.4 fold; increase of MX1 mRNA (MX1): ~ 3.4 fold |
| C[C@@H]1CCN(C(=O)CC#N)C[C@@H]1N(C)c1ncnc2[nH]ccc12 [Tofacitinib, tofacitinib] | – | 100 | 4 | 83 | – | – | – | 4 | prevented phosphorylation of STAT1 | 100 | – | – |
| CCS(=O)(=O)N1CC(CC#N)(n2cc(-c3ncnc4[nH]ccc34)cn2)C1 [Baricitinib, baricitinib] | – | 100 | 4 | 100 | – | – | – | 4 | prevented phosphorylation of STAT1 | 100 | – | – |
| COc1cccc2c1C(=O)c1c(O)c3c(c(O)c1C2=O)C[C@@](O)(C(=O)CO)C[C@@H]3O[C@H]1C[C@H](N2CCO[C@H](OC)C2)[C@H](O)[C@H](C)O1 [Nemorubicin, nemorubicin] | – | 107 | 4 | 133 | 0.092 | 0.104 | normalized all genes | 4 | – | – | > 99 | IC50 (HLA-ABC; Homo sapiens, read-out: Immunofluorescence IC50): 0.07 µM; Emax ([2]; Homo sapiens, 24 h, read-out: HiBit Efficacy): 100% |
| CC(C)[C@]12O[C@H]1[C@@H]1O[C@@]13[C@@]1(C)CCC4=C(COC4=O)[C@@H]1C[C@@H]1O[C@@]13C2=O [Triptonide, triptonide] | ultrasensitive | – | 4 | – | – | – | normalized all genes | 4 | – | 100 | > 99 | Immunofluorescence Curve class (HLA-ABC; [4]): −1a; Immunofluorescence Efficacy (HLA-ABC; [4]): 100%; RT-qPCR Curve class (HLA-B mRNA; [5]): −1a; RT-qPCR Efficacy (HLA-B mRNA; [5]): 113%; IC50 (HLA-B mRNA; [5]): 0.5 µM; Average Curve class [1, 6]: −1a; Average Efficacy [1, 6]: 104%; IC50 [1, 6]: 0.246 µM; HiBit Curve class ([2]; HLA-B HiBit clone AB-7 cells, 4.0 ng/ml IFN-β plus compound titration, 24 hours): −1a; IC50 ([2]; read-out: HiBit IC50, HLA-B HiBit clone AB-7 cells, 4.0 ng/ml IFN-β plus compound titration, 24 hours): 0.047 µM |
